Measured values from patent US20110020837A1, “Method for isolating or identifying a target protein interacting with a lipid in a cell” (Universiteit Utrecht Holding B.V., priority 2009, published 2011).

Tests used:
CHO-CGalT cells [1] = assay: Incorporation of pacFAs into cellular lipids, lipid extracts analysed by nano-ESI-MS/MS; assay type: cell-based; conditions: 100 μM, 16 hours
Experimental: FIGS. 7A and 7B. Mass spectrometric analysis of photoactivatable and clickable PC species. CHO-CGaIT cells (−5×10^7 cells) were labeled for 16 hours in delipidated medium in the absence (upper panel) or presence (lower panel) of 100 μM (FIG. 7A) C15pacFA or (FIG. 7B) C16pacFA. Lipids were extracted, dried and subsequently dissolved in 5 mM ammonium acetate in MeOH and subjected to nano-ESI-MS/MS. Shown are PREC184 spectra visualizing choline phosphate-containing lipids. Abbreviations give the total number of carbon atoms of fatty acids attached and the numbers of double bonds within the fatty acid. Transparent bars highlight PC species containing the pacFAs.
Given the small size of fatty acids, additional functional groups might have an impact on their physical properties. Due to the rigidity of the triple bond pacFAs are slightly kinked in the end and their overall length is shorter compared with their corresponding natural counterparts. […] Phosphatidylcholine (PC) is the major lipid class in eukaryotic cells. To analyze choline phosphate containing species, a precursor ion scanning procedure was employed selecting for fragments with a mass of 184 Da. […] UV irradiation of the lipid extracts gave rise to peaks with a mass 28 Da lower than the corresponding pacPC species due to the release of nitrogen followed by either an α-hydrogen migration or an intramolecular crosslink of the carbene (data not shown).^[4] […] SM16:0 is the major SM species in CHO cells. Its biosynthesis requires two palmitoyl-CoA: (i) as a precursor of the sphingoid backbone and (ii) for its N-acylation. The length of the N-acylated fatty acid is strictly controlled since there is no SM14:0 and only a minor amount of SM18:0 in CHO cells.^[5] Therefore, we assumed that the chain length of C15pacFA might interfere with its incorporation into SM. […]
Lipids were extracted according to Bligh and Dyer and analyzed as described previously (K. Retra, O. B. Bleijerveld, R. A. van Gestel, A. G. Tielens, J. J. van Hellemond, J. F. Brouwers, Rapid Commun. Mass Spectrom. 2008, 22, 1853.^[20]

CHO-CGalT cells [2] = assay: Morphology of cells after labeling with pacFAs; assay type: cell-based; conditions: cells labeled with pacFA
[3] = Stability of terminal alkyne towards UV irradiation, 1H-NMR analysis; assay type: physicochemical; conditions: irradiation for 5 minutes
[4] = tested on: membrane and cytosolic proteins of CHO-CGalT cells; assay: In vivo labeling of cells with C15pacFA, alexa488-azide click of membranes and cytosol, SDS-PAGE in-gel fluorescence; assay type: cell-based; conditions: membranes and cytosol after UV irradiation
Experimental: FIG. 2. In vivo labeling of proteins interacting with lipids. CHO-CGalT cells were labeled with and without 100 μM C15pacFA for 16 hours. Where indicated, cells were UV irradiated. Total membranes were separated from cytosol. The cytosolic proteins were precipitated by CHCl3/MeOH precipitation and total membranes as well as the cytosolic precipitate were subjected to click reaction conditions using alexa488-azide or biotin-azide. Panel A, Proteins labeled with alexa488-azide were separated by SDS-PAGE and analyzed by in-gel fluorescence. […] The lanes were cut into ten gel pieces as indicated and analyzed by mass spectrometry as described herein. […]
In order to see whether pacFAs can be used to investigate protein-lipid interactions in vivo, we administered C15pacFA to cells. […] Both membranes and cytosol were subjected to click reaction conditions and samples were analyzed by SDS-PAGE and in-gel fluorescence (FIG. 2). […] 208 proteins were identified that were exclusively detected upon labeling cells with C15pacFA (FIG. 2, Panel D, lane III). […] Proteins that were exclusively detected upon labeling with C15pacFA and subsequent cross-linking (lane IV) are given in Table 2. […]

lysozyme = lysozyme (Gallus gallus, UniProt P00698); assay: Photo-affinity labeling of lysozyme with C15pacFA (specificity control), click reaction with biotin-azide, Western blot; assay type: binding; conditions: same conditions as BSA; protein known not to interact with lipids
lysozyme, sequence (P00698 19-147): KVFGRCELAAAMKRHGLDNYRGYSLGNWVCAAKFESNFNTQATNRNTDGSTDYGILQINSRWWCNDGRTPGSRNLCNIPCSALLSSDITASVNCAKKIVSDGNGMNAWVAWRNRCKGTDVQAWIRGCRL
Experimental: FIG. 5. Panel A, Proof-of-concept for the specific interaction of pacFA with a fatty acid binding protein. An ethanolic solution of C15pacFA was added to a solution of defatted-BSA or lysozyme in PBS as described above. After incubating for 1 hour at room temperature samples were UV-irradiated and 20 μl were subjected to click reaction with biotin-azide. Samples were analyzed by SDS-PAGE, followed by Western blotting and detection via NeutrAvidin coupled to horse radish peroxidase. Panel B, SDS-PAGE and subsequent staining with Coomassie brilliant blue.
Serum albumin binds and transports fatty acids. As a proof-of-concept that C15pacFA can be used to tag proteins with an affinity for fatty acids, defatted bovine serum albumin (BSA) was incubated with C15pacFA and subsequently UV-irradiated. […]
Samples were irradiated applying a 200 W high pressure mercury lamp (Oriel Photomax) equipped with a PYREX® glass filter to remove wavelengths below 350 nm. […] An ethanolic solution of 10-azi stearic acid (10-ASA) was irradiated under the conditions described above and the loss of absorption at 349.5 nm was monitored (FIG. 9, Panel A). […] To exclude degradation of proteins under these conditions a 1 mg/ml solution of BSA was irradiated up to 5 minutes and analyzed by gel electrophoresis and subsequent Coomassie staining (FIG. 9, Panel B). […]

[5] = biological target: defatted bovine serum albumin (BSA) (Bos taurus, UniProt P02769); assay: Photo-affinity labeling of defatted BSA with C15pacFA, click reaction with biotin-azide, Western blot; assay type: binding; conditions: incubation with C15pacFA, UV-irradiation and click reaction with biotin-azide
defatted bovine serum albumin (BSA), sequence (P02769 25-607): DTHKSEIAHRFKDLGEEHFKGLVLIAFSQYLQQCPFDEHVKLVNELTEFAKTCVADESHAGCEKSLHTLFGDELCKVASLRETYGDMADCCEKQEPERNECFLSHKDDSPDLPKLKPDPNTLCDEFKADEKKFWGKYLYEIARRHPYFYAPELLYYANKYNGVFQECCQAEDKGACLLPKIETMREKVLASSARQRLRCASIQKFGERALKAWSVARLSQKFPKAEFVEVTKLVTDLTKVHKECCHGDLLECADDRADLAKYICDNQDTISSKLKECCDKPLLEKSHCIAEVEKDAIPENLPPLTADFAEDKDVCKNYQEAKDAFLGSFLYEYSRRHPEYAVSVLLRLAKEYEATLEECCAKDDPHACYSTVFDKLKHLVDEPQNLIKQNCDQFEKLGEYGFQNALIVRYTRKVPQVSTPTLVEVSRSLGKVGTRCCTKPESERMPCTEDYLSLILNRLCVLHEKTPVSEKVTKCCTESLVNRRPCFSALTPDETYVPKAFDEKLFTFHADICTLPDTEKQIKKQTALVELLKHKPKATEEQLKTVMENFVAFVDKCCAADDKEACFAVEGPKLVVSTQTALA
Experimental: As a proof-of-concept that C15pacFA can be used to tag proteins with an affinity for fatty acids, defatted bovine serum albumin (BSA) was incubated with C15pacFA and subsequently UV-irradiated. Thereafter, the mixture was subjected to a click reaction, applying biotin-azide (see FIG. 5). […] CuSO4 serves as a source for Cu(I) that is required for the catalytic cycle of the [3+2] cyclo-addition and was formed in situ by the addition of the reducing agent TCEP.
Samples were irradiated applying a 200 W high pressure mercury lamp (Oriel Photomax) equipped with a PYREX® glass filter to remove wavelengths below 350 nm. Samples were placed on ice at a distance from 35 cm from the light source. […] Samples were UV irradiated for 1 minute. […]

HeLa cells = assay: Cell imaging of bifunctional lipids: UV fixation, lipid extraction, alexa-azide click, fluorescent microscopy; assay type: cell-based; conditions: UV irradiated versus non-irradiated, non-crosslinked lipids extracted
Experimental: Microscopy of lipids requires a fluorescent tag on the lipid. In contrast to polyene lipids, most fluorescent tags interfere with the properties of thus labeled lipids.^[24] […] Lipids are highly dynamic and their chemical fixation remained difficult. […] To this end, C15pacFA was administered to cells. Lipids were fixed in vivo by UV-irradiation followed by the fixation of cells with methanol. In order to remove non-protein-crosslinked lipids, cells were extracted according to Bligh and Dyer.^[27] Samples were subjected to click reactions with alexa-azide and lipids were visualized by fluorescent microscopy.
HeLa cells grown on cover slips in a 24-well plate were labeled for 1 hour in 0.5 ml DMEM 4.5 g/liter glucose supplemented with 10% delipidated FCS and 100 μM C15pacFA. The cells were washed with 0.5 mL PBS, overlaid with 0.5 mL PBS and UV irradiated on ice for 2 minutes. After UV irradiation the cells were fixed with 0.5 mL of −20° C. cold MeOH for 10 minutes. After fixation cells were subjected to one, two or three rounds of lipid extraction according to Bligh and Dyer using 0.5 ml of CHCl3/MeOH/AcOH 10:55:0.75 v/v for each extraction (for each extraction coverslips were incubated for 1 minute at room temperature). The coverslips were washed with 0.5 mL PBS and then subjected to click reactions. […]

[6] = UV activation of the photoactivatable diazirine ring, loss of absorption at 349.5 nm; assay type: physicochemical; conditions: ethanolic solution, thirty seconds of irradiation, 200 W mercury lamp, filter below 350 nm
Experimental: FIG. 9. Panel A, Activation of the photoactivatable diazirine ring was optimized by exposing an ethanolic solution of 10-azi-stearic acid (10-ASA) under the described conditions to UV-light for the indicated time. Absorbance at 349.5 nm was measured to monitor decay of 10-ASA. Panel B, A solution of defatted BSA (1 mg/ml) was irradiated under the same conditions and analyzed by SDS-PAGE.
Samples were irradiated applying a 200 W high pressure mercury lamp (Oriel Photomax) equipped with a PYREX® glass filter to remove wavelengths below 350 nm. Samples were placed on ice at a distance from 35 cm from the light source. In order to optimize cross-linking conditions we made use of the characteristic absorption of the diazirine group (FIG. 8). An ethanolic solution of 10-azi stearic acid (10-ASA) was irradiated under the conditions described above and the loss of absorption at 349.5 nm was monitored (FIG. 9, Panel A). Thirty seconds of irradiation activated 95% of the photoactivatable group. Samples were UV irradiated for 1 minute. To exclude degradation of proteins under these conditions a 1 mg/ml solution of BSA was irradiated up to 5 minutes and analyzed by gel electrophoresis and subsequent Coomassie staining (FIG. 9, Panel B). […]

C#CCCCC1(CCCCCCCCC(=O)O)N=N1 [C16pacFA, 9-(3-Pent-4-ynyl-3-H-diazirin-3-yl)-nonanoic acid]
incorporation into sphingomyelin (SM) (CHO-CGalT cells [1]): no incorporation
morphological differences after labeling (CHO-CGalT cells [2]): No morphological differences were observed

C#CCc1ccccc1 [3-phenyl-1-propyne]
stability towards UV irradiation [3]: stability of alkynes towards UV irradiation

C#CCCCC1(CCCCCCCCC(=O)O)N=N1 [C15pacFA, 9-(3-pent-4-ynyl-3-H-diazirin-3-yl)-nonanoic acid]
proteins labeled by photo-affinity labeling (in-gel fluorescence) [4]: not only membrane proteins were labeled by means of photo-affinity labeling but also cytosolic proteins
incorporation into sphingomyelin (SM) (CHO-CGalT cells [1]): No significant incorporation
incorporation into phosphatidylcholine (pacPC species) (CHO-CGalT cells [1]; precursor ion scan 184 Da): led to additional peaks corresponding to pacPC species
labeling of lysozyme (lysozyme): no labeling of lysozyme was observed
labeling of BSA [5]: BSA could be labeled
morphological differences after labeling (CHO-CGalT cells [2]): No morphological differences were observed
fluorescent structures after click reaction with alexa-azide (HeLa cells): Fluorescent structures were only visible in the UV irradiated samples

CCCCCCCCC1(CCCCCCCCC(=O)O)N=N1 [10-ASA, 10-azi-stearic acid]
activation of the photoactivatable group [6]: 95%
